The results in this text go back to US20240150377A1, “MODULATORS OF CYSTIC FIBROSIS TRANSMEMBRANE CONDUCTANCE REGULATOR” (VERTEX PHARMACEUTICALS INCORPORATED, priority 2020, published 2024).

The conditions of data set [1]: amide bond, 13-membered ring.
A further data set addresses T1, CFTR (Homo sapiens, UniProt P13569, DEL508-508).
T1 construct: endogenous in cells; host or cells: primary human bronchial epithelial cells from CF subjects (F508del/MF-HBE), differentiated at air-liquid interface
The data set can be described thus: HBE assay: Ussing chamber assay of CFTR-mediated short-circuit currents. It is filed as cell-based. The following applies: for EC50: read-out: HBE EC50. The method, boiled down:
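CFTR-mediated Isc (μA/cm²) equals the peak response to apical 20 μM forskolin minus the residual after a 20 μM each BPO/GlyH-101/CFTR inhibitor 172 cocktail, recorded in Ussing chambers at Vhold 0 mV, 37 °C, pH 7.4, with 30 μM apical amiloride. Cells were F508del/MF HBE cultures preincubated 18-24 h with corrector (concentration range or 10 μM) plus 1 μM ivacaftor in 20% human serum.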

Setting [2] is: Table 11, read-out: HBE Max Activity (%).
The mark [3] stands for this setting: Table 10, read-out: HBE Max activity (%).

Read-outs that look alike come from different tables or passages of the source.

T1 sequence (P13569 with tags, fused parts or gaps DEL508-508): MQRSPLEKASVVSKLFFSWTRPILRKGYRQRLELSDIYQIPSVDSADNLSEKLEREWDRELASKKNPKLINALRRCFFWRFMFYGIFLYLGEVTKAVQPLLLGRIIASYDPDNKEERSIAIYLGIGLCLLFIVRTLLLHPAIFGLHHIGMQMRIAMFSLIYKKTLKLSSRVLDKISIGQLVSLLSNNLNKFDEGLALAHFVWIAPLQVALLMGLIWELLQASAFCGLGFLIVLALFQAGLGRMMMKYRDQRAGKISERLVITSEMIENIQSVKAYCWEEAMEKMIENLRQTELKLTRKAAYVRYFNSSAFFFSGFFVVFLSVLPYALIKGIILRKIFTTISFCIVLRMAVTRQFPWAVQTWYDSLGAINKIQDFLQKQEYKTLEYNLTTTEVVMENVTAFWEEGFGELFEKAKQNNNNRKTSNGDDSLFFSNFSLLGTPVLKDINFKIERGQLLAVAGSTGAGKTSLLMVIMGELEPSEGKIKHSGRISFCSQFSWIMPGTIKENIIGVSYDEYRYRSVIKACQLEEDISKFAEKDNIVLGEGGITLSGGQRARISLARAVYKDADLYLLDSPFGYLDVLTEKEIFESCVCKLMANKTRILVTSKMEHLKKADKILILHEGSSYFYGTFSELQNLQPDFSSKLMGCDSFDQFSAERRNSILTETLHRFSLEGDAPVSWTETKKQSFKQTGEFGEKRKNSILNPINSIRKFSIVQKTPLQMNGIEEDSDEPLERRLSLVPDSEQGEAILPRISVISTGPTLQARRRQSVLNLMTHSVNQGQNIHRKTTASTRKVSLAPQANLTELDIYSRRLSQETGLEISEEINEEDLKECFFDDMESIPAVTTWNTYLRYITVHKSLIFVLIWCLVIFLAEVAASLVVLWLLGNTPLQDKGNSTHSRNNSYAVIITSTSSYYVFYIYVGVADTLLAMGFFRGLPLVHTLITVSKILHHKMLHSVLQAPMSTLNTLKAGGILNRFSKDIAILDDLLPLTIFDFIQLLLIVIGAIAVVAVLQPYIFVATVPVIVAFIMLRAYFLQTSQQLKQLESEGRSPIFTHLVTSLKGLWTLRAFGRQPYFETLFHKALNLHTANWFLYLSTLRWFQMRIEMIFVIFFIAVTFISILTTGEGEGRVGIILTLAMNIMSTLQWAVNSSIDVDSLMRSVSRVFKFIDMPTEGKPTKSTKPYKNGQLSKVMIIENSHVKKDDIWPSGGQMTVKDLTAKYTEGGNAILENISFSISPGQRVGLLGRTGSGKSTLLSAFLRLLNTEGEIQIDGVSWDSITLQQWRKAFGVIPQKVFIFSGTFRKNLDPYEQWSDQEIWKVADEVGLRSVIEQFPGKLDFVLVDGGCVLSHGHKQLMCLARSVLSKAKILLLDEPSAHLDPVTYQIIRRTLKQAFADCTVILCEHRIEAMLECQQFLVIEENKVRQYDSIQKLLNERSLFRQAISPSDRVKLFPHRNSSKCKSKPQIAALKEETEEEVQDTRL

In general, EC50 refers to the midpoint of the concentration-response curve. In data set [1] (from Cc1cccc(OCc2ccccc2)c1-c1cc(OC[C@@H](CC(C)(C)C)NCc2ccc(N3CCOCC3)cn2)nc(NS(=O)(=O)c2cccc(C(=O)O)c2)n1, HATU/TBTU/DMTMM/DIEA, DCM, 3.76 mM, 25.0 °C, 1.0 h), `Cc1cccc(OCc2ccccc2)c1-c1cc2nc(n1)NS(=O)(=O)c1cccc(c1)C(=O)N(Cc1ccc(N3CCOCC3)cn1)[C@H](CC(C)(C)C)CO2` [Compound 7, (11R)-6-(2-Benzyloxy-6-methyl-phenyl)-11-(2,2-dimethylpropyl)-12-[(5-morpholino-2-pyridyl)methyl]-2,2-dioxo-9-oxa-2λ^6-thia-3,5,12,19-tetrazatricyclo[12.3.1.14,8]nonadeca-1(18),4(19),5,7,14,16-hexaen-13-one] registered a ring closure, yield after HPLC of 22%. The activation at 10 µM on CFTR (Table 11, at 10 μM, read-out: HBE Activity at 10 μM (%)) is above 60%. Also, at CFTR (Table 11), the EC50 is below 1 µM. Besides, the Emax at CFTR (setting [2]) is above 60%.

On to `Cc1cccc(C)c1-c1cc2nc(n1)NS(=O)(=O)c1cccc(c1)C(=O)N(Cc1ccc(OC3CCCC3)cn1)[C@H](CC(C)(C)C)CO2` [Compound 49, (11R)-12-[[5-(Cyclopentoxy)-2-pyridyl]methyl]-6-(2,6-dimethylphenyl)-11-(2,2-dimethylpropyl)-2,2-dioxo-9-oxa-2λ^6-thia-3,5,12,19-tetrazatricyclo[12.3.1.14,8]nonadeca-1(18),4(19),5,7,14,16-hexaen-13-one], for which the ring closure, yield after HPLC in data set [1] (from 3-[[4-[(2R)-2-[[5-(cyclopentoxy)-2-pyridyl]methylamino]-4,4-dimethyl-pentoxy]-6-(2,6-dimethylphenyl)pyrimidin-2-yl]sulfamoyl]benzoic acid (Dihydrochloride salt), HATU/DIEA, DMF, 28.0 mM, 25.0 °C) was 49%. At CFTR (Table 10), the EC50 was 1 to 3 µM. The Emax at CFTR (setting [3]) is above 60%.

In data set [1] (from Cc1cccc(C)c1-c1cc(OC[C@@H](CC(C)(C)C)NCc2ncc(N3CCOCC3)cc2N2CCOCC2)nc(NS(=O)(=O)c2cccc(C(=O)O)c2)n1, CDMT/NMM, DMF, 25.0 °C, 2.5 h, 2 steps), `Cc1cccc(C)c1-c1cc2nc(n1)NS(=O)(=O)c1cccc(c1)C(=O)N(Cc1ncc(N3CCOCC3)cc1N1CCOCC1)[C@H](CC(C)(C)C)CO2` [Compound 56, (11R)-6-(2,6-Dimethylphenyl)-11-(2,2-dimethylpropyl)-12-[(3,5-dimorpholino-2-pyridyl)methyl]-2,2-dioxo-9-oxa-2λ^6-thia-3,5,12,19-tetrazatricyclo[12.3.1.14,8]nonadeca-1(18),4(19),5,7,14,16-hexaen-13-one] displayed a ring closure, yield after HPLC of 22%. On CFTR (Table 10), the EC50 was below 1 µM. For the same molecule, on CFTR (setting [3]), the Emax is above 60%.

`Cc1cccc(C)c1-c1cc2nc(n1)NS(=O)(=O)c1cccc(c1)C(=O)N(Cc1ccc3ccccc3n1)[C@H](CC(C)(C)C)CO2` [Compound 58, (11R)-6-(2,6-Dimethylphenyl)-11-(2,2-dimethylpropyl)-2,2-dioxo-12-(2-quinolylmethyl)-9-oxa-2λ^6-thia-3,5,12,19-tetrazatricyclo[12.3.1.14,8]nonadeca-1(18),4(19),5,7,14,16-hexaen-13-one]: the ring closure, yield after HPLC in data set [1] (from 3-[[4-(2,6-dimethylphenyl)-6-[(2R)-4,4-dimethyl-2-(2-quinolylmethylamino)pentoxy]pyrimidin-2-yl]sulfamoyl]benzoic acid (Dihydrochloride salt), HATU/DIEA, DMF, 27.5 mM, 25.0 °C) was determined as 73%. The half-maximal effective concentration (EC50) at CFTR (Table 10) was below 1 µM. In addition, the Emax on CFTR (setting [3]) is above 60%.

Regarding `Cc1cccc(C)c1-c1cc2nc(n1)NS(=O)(=O)c1cccc(c1)C(=O)N(Cc1cc(C3CC3)no1)[C@H](CC(C)(C)C)CO2` [Compound 137, (11R)-12-[(3-Cyclopropyl-1,2-oxazol-5-yl)methyl]-6-(2,6-dimethylphenyl)-11-(2,2-dimethylpropyl)-9-oxa-2λ^6-thia-3,5,12,19-tetraazatricyclo[12.3.1.14,8]nonadeca-1(17),4(19),5,7,14(18),15-hexaene-2,2,13-trione], the ring closure, yield after HPLC in data set [1] (from Cc1cccc(C)c1-c1cc(OC[C@@H](CC(C)(C)C)NCc2cc(C3CC3)no2)nc(NS(=O)(=O)c2cccc(C(=O)O)c2)n1, HATU/TEA, DMF, 15.4 mM, 2.0 h) amounted to 44%. Further, at CFTR (Table 11), the EC50 was below 1 µM. For the same molecule, the Emax at CFTR (setting [2]) was above 60%.

Turning to `Cc1cccc(C)c1-c1cc2nc(n1)NS(=N)(=O)c1cccc(c1)C(=O)N(Cc1ncc(N3CC(C)(C)C3)cn1)[C@H](CC(C)(C)C)CO2` (single isomer, unassigned; isomer a), in data set [1] (from Cc1cccc(C)c1-c1cc(OC[C@@H](CC(C)(C)C)NCc2ncc(N3CC(C)(C)C3)cn2)nc(NS(=N)(=O)c2cccc(C(=O)O)c2)n1, CDMT/NMM, DMF, 21.8 mM, 14.0 h), the ring closure, yield after HPLC was 9%.

As for `Cc1cccc(C)c1-c1cc2nc(n1)NS(=O)(=O)c1cccc(c1)C(=O)N(Cc1ccccn1)[C@H](CC(C)(C)C)CO2`, in data set [1] (from Cc1cccc(C)c1-c1cc(OC[C@@H](CC(C)(C)C)NCc2ccccn2)nc(NS(=O)(=O)c2cccc(C(=O)O)c2)n1, HATU/TEA, DMF, 20.2 mM, 16.0 h), the ring closure, yield after HPLC amounted to 41%.

As to `Cc1cccc(C)c1-c1cc2nc(n1)NS(=O)(=O)c1cccc(c1)C(=O)N(CCc1ccc(Br)cn1)[C@H](CC(C)(C)C)CO2`, in data set [1] (from Cc1cccc(C)c1-c1cc(OC[C@@H](CC(C)(C)C)NCCc2ccc(Br)cn2)nc(NS(=O)(=O)c2cccc(C(=O)O)c2)n1, CDMT/NMM, DMF, 25.0 °C, 3.0 h, 2 steps), the ring closure, yield after HPLC was determined as 15%.
